Experimental data published in paper PMC10609273, “Radiosynthesis and Early Evaluation of a Positron Emission Tomography Imaging Probe [^18F]AGAL Targeting Alpha-Galactosidase A Enzyme for Fabry Disease” (Molecules, 2023).

Tests used:
Type in all cases: in vitro ADME
[1] = In vitro liver microsomal metabolism study, rat; conditions: rat liver microsomes
Procedure: Metabolic stability was assessed by incubating compounds in the presence of human, rat, and mouse liver microsomal fractions (Xenotech, Kansas City, KS, USA). All chemicals and reagents, including control compounds, were purchased from commercial sources such as Sigma-Aldrich (St. Louis, MO, USA) or Toronto Research Chemicals (North York, ON, Canada). Liver microsomal incubations were conducted with 100 mM phosphate buffer, 0.5 mg/mL of liver microsomal protein, 2 mM NADPH, 2.5 mM UDPGA, 3 mM MgCl2, alamethicin, and 1 μM test article for a total incubation volume of 80 µL. All reagents except the liver microsomes were mixed together and aliquoted (60 μL) into 96-well plates. The reaction was initiated by adding the microsomes (20 μL). At 0, 3, 7, 12, 20, and 30 min time points, the reactions were terminated with the addition of acetonitrile-containing carbutamide (as an internal standard). The terminated samples were then centrifuged at 2 °C to pellet the protein and the supernatant was injected onto an LC–MS. The test article was monitored for loss over time and the t1/2 was determined. The calculated t1/2 was then used as described below to determine the Eh (hepatic extraction ratio) for both human and rat.
The intrinsic clearance (CLint), hepatic clearance (CLh), and hepatic extraction ratio (Eh) were calculated using the equations below. CLint = (0.693/t1/2 in vitro) × (mL incubation volume/mg microsomal protein) × (X mg of microsomal protein/gram of liver) × (Y g of liver/kg of body weight)(1) CLh = Q × CLint/Q + CLint(2) Eh = CLh/Q(3) where: • CLint = intrinsic clearance (calculated from microsomal incubations) • X = 40 for human, 41.5 for rat and 45 for mouse • Y = 21.4 for human, 40 for rat and 50 for mouse • t1/2 = half-life • CLh = hepatic clearance • Q = liver blood flow rate = 1.24 L/h/kg for human, 4.8 L/h/kg for rat, and 5.4 L/h/kg for mouse • Eh = hepatic extraction ratio • CLh = hepatic clearance

CYP1A2 = molecular target: T1, CYP1A2 (Homo sapiens, UniProt P05177); assay: Reversible CYP inhibition in pooled HLMs; conditions: 30 µM compound, substrate phenacetin
T1 construct: from tissue; host or cells: pooled human liver microsomes (n = 200)
T1 sequence (P05177 1-516): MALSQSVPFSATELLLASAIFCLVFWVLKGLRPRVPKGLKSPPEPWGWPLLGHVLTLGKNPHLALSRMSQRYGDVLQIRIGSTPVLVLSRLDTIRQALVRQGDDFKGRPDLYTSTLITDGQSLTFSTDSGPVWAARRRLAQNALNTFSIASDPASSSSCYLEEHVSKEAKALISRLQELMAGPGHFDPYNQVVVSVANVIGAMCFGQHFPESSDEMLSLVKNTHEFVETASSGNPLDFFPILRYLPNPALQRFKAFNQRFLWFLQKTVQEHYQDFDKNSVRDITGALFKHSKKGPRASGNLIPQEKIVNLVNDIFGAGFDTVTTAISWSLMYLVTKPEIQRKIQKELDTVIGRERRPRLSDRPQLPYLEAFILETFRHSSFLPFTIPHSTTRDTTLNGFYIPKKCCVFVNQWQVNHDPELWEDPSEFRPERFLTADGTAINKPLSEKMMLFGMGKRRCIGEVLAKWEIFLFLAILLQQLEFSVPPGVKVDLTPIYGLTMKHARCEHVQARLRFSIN
Procedure: (§1) All chemicals and reagents including control compounds were purchased from commercial sources such as Sigma-Aldrich or Toronto Research Chemicals. The test article was tested for reversible inhibition of CYPs in human liver microsomes (HLM) (0.2 mg/mL protein) at a concentration range of 0–30 μM. Each condition was incubated in duplicate. The test article (0–30 μM), NADPH, and the CYP-selective probe substrate were incubated in a 96-well plate at 37 °C in 0.1 M potassium phosphate buffer, pH 7.4. The reactions were initiated by adding the HLMs. The total reaction volume was 100 μL.
(§2) After the incubation period (10 min for CYP1A2, 2B6, and 2C9; 15 min for CYP2C19; and 4 min for CYP2C8 and 2D6 to accommodate linear kinetic conditions) at 37 °C, the reactions were terminated by the addition of 100 μL of ice-cold acetonitrile-containing carbutamide as an IS, then centrifuged at 2500× g for 10 min at 2 °C. A 150 μL aliquot of supernatant for each CYP assay, except for CYP1A2, was then transferred to a new plate for analysis. For CYP1A2, 80 μL of supernatant was transferred to the plate and further diluted with 80 μL of water before analysis. All samples were analyzed with liquid chromatography with tandem mass spectrometry (LC–MS/MS).

CYP2B6 = molecular target: T2, CYP2B6 (Homo sapiens, UniProt P20813); assay: Reversible CYP inhibition in pooled HLMs; conditions: 30 µM compound, substrate bupropion
T2 construct: from tissue; host or cells: pooled human liver microsomes (n = 200)
T2 sequence (P20813 1-491): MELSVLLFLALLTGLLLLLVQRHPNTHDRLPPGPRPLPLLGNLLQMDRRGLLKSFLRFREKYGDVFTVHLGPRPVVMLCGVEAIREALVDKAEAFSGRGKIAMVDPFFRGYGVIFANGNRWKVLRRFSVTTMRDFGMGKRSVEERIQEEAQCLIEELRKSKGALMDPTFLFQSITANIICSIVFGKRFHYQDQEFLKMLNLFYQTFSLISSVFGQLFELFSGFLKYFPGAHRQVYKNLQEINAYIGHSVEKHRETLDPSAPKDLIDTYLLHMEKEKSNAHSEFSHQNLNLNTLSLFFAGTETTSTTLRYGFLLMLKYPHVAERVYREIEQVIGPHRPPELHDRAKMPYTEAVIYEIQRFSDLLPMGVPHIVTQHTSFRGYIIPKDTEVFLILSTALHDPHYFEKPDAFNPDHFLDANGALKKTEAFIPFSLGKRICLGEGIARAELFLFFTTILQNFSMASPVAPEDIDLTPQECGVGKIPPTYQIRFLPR
Procedure: as §1, §2

CYP2C19 = molecular target: T3, CYP2C19 (Homo sapiens, UniProt P33261); assay: Reversible CYP inhibition in pooled HLMs; conditions: 30 µM compound, substrate S-mephenytoin
T3 construct: from tissue; host or cells: pooled human liver microsomes (n = 200)
Procedure: as §1, §2

CYP2D6 = molecular target: T4, CYP2D6 (Homo sapiens, UniProt P10635); assay: Reversible CYP inhibition in pooled HLMs; conditions: 30 µM compound, substrate dextromethorphan
T4 construct: from tissue; host or cells: pooled human liver microsomes (n = 200)
Procedure: as §1, §2

T3 sequence (P33261 whole entry): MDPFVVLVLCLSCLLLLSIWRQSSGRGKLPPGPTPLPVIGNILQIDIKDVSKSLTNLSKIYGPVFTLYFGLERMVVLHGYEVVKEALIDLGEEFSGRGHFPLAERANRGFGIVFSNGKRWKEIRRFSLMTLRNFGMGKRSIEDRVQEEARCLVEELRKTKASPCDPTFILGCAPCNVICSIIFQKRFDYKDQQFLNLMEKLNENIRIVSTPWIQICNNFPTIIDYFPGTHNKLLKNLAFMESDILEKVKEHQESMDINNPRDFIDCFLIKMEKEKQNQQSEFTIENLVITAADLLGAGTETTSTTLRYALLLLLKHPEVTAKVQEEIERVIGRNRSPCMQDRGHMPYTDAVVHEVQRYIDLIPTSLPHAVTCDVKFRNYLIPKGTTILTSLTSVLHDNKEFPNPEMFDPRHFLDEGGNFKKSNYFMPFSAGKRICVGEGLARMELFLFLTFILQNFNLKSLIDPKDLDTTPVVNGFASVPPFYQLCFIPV
T4 sequence (P10635 whole entry): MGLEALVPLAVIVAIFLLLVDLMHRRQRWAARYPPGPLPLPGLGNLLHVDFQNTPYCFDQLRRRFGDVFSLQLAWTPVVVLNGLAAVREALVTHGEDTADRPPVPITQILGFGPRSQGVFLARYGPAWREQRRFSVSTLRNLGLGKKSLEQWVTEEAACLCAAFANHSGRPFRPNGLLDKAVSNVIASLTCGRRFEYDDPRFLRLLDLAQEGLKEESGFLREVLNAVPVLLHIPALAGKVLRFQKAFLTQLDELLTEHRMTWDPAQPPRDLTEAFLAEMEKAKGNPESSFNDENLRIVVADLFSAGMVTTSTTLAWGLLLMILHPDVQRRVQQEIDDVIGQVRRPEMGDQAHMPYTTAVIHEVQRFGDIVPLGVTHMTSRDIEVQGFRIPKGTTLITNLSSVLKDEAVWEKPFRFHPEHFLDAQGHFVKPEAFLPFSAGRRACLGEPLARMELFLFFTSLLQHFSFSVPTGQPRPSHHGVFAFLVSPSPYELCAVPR

- CLh [1]: 55.7 mL/min/kg
- Eh (hepatic extraction ratio) [1]: 0.695
- microsomal stability, clearance in words [1]: moderately cleared
- CLint scaled at 1 µM ([1]; 1 μM, NADPH + UDPGA): 182 mL/min/kg
- reversible inhibition of CYP1A2 activity (CYP1A2): no significant loss of CYP activity
- reversible inhibition of CYP2B6 activity (CYP2B6): no significant loss of CYP activity
- reversible inhibition of CYP2C19 activity (CYP2C19): no significant loss of CYP activity
- reversible inhibition of CYP2D6 activity (CYP2D6): no significant loss of CYP activity
Structure (SMILES): O=C(CCCCCCCn1cc(CCCF)nn1)N1[C@@H]2[C@H](O)[C@@H](O)[C@@H](O)[C@@H](CO)[C@@H]21 [AGAL]
